Laboratory results from the NIST ThermoML archive (doi:10.1021/je030173e).

Legend:
[1] = xn = mol fraction of the nth substance listed

COCCOC [1,2-dimethoxyethane]
Settings | surface tension liquid-gas [mN/m]
298.15 K | 23.79
308.15 K | 22.91
318.15 K | 21.89

COCCOC [1,2-dimethoxyethane] + O
surface tension liquid-gas [mN/m], [1]
Settings | x1 = 0.047 | x1 = 0.066 | x1 = 0.0759 | x1 = 0.1286 | x1 = 0.1942 | x1 = 0.2612 | x1 = 0.4132 | x1 = 0.6313 | x1 = 1
298.15 K | 48.35 | 42.42 | 40.62 | 31.96 | 28.55 | 27.81 | 26.08 | 25.41 | 23.79
308.15 K | 46.83 | 40.97 | 39.26 | 30.69 | 27.43 | 26.81 | 25.12 | 24.49 | 22.91
318.15 K | 46.47 | 40.62 | 37.71 | 29.26 | 26.53 | 25.92 | 24.78 | 23.6 | 21.89

COCCOCCO [2-(2-methoxyethoxy)ethanol]
Settings | surface tension liquid-gas [mN/m]
298.15 K | 34.73
308.15 K | 33.91
318.15 K | 32.95

COCCOCCO [2-(2-methoxyethoxy)ethanol] + O
surface tension liquid-gas [mN/m], [1]
Settings | 298.15 K | 308.15 K | 318.15 K
x1 = 0.0374 | 58.57 | 57.12 | 55.97
x1 = 0.0558 | 55.28 | 53.9 | 52.21
x1 = 0.1191 | 45.14 | 43.86 | 43.13
x1 = 0.1951 | 41.05 | 39.78 | 38.96
x1 = 0.3021 | 40.02 | 38.8 | 38.55
x1 = 0.4427 | 38.27 | 37.12 | 36.31
x1 = 0.491 | 37.57 | 36.46 | 35.26
x1 = 0.5502 | 36.87 | 35.92 | 34.53
x1 = 0.7494 | 35.37 | 34.49 | 33.45
x1 = 0.8564 | 35.02 | 34.18 | 33.12
x1 = 1 | 34.73 | 33.91 | 32.95

COCCOCCOCCO [2-[2-(2-methoxyethoxy)ethoxy]ethanol]
Settings | surface tension liquid-gas [mN/m]
298.15 K | 36.28
308.15 K | 35.79
318.15 K | 35.21

COCCOCCOCCO [2-[2-(2-methoxyethoxy)ethoxy]ethanol] + O
surface tension liquid-gas [mN/m], [1]
Settings | x1 = 0.0564 | x1 = 0.0964 | x1 = 0.1673 | x1 = 0.3525 | x1 = 0.474 | x1 = 0.5536 | x1 = 0.6606 | x1 = 0.7512 | x1 = 0.8736 | x1 = 1
298.15 K | 54.62 | 47.43 | 41.73 | 40.45 | 39.1 | 37.76 | 37.13 | 36.91 | 36.69 | 36.28
308.15 K | 53.11 | 45.98 | 40.46 | 39.45 | 38.29 | 37.04 | 36.49 | 36.35 | 36.18 | 35.79
318.15 K | 51.53 | 44.95 | 39.01 | 38.12 | 37.42 | 36.12 | 35.85 | 35.46 | 35.29 | 35.21

COCCO [2-methoxyethan-1-ol]
Settings | surface tension liquid-gas [mN/m]
298.15 K | 30.82
308.15 K | 30.02
318.15 K | 29.1

COCCO [2-methoxyethan-1-ol] + O
surface tension liquid-gas [mN/m], [1]
Settings | 298.15 K | 308.15 K | 318.15 K
x1 = 0.0509 | 56.33 | 55.17 | 53.9
x1 = 0.0559 | 55.11 | 54.04 | 52.82
x1 = 0.1052 | 46.86 | 45.88 | 44.8
x1 = 0.1494 | 43.31 | 42.37 | 41.35
x1 = 0.2215 | 39.7 | 38.81 | 37.83
x1 = 0.3373 | 36.75 | 35.89 | 34.92
x1 = 0.4783 | 35.02 | 34.18 | 33.22
x1 = 0.6258 | 32.91 | 32.02 | 31.13
x1 = 0.7814 | 31.78 | 30.96 | 30.02
x1 = 0.8912 | 31.02 | 30.21 | 29.28
x1 = 1 | 30.82 | 30.02 | 29.1

O [water]
Settings | surface tension liquid-gas [mN/m]
298.15 K | 71.99
308.15 K | 70.38
318.15 K | 68.82

O [water] + COCCO
[1], x2 = 0
Settings | surface tension liquid-gas [mN/m]
298.15 K | 71.99
308.15 K | 70.38
318.15 K | 68.82

O [water] + COCCOC
[1], x2 = 0
Settings | surface tension liquid-gas [mN/m]
298.15 K | 71.99
308.15 K | 70.38
318.15 K | 68.82

O [water] + COCCOCCO
[1], x2 = 0
Settings | surface tension liquid-gas [mN/m]
298.15 K | 71.99
308.15 K | 70.38
318.15 K | 68.82

O [water] + COCCOCCOCCO
[1], x2 = 0
Settings | surface tension liquid-gas [mN/m]
298.15 K | 71.99
308.15 K | 70.38
318.15 K | 68.82
